The values below come from the Kinase Knowledgebase extract (Sharma et al. 2016).

Structures are written as SMILES. pIC50: −log10 of the molar value. Where only a bound is given, the exact number is not on record here.

One test addresses EGFR (UniProt P00533). The conditions noted are these: concentration not given here.
In another test the target is EGFR (human) (UniProt P00533). Conditions: for pIC50: mda-mb-468; for inhibition: mda-mb-468, concentration not given here.
EGFR (human), sequence (P00533 whole entry, looked up): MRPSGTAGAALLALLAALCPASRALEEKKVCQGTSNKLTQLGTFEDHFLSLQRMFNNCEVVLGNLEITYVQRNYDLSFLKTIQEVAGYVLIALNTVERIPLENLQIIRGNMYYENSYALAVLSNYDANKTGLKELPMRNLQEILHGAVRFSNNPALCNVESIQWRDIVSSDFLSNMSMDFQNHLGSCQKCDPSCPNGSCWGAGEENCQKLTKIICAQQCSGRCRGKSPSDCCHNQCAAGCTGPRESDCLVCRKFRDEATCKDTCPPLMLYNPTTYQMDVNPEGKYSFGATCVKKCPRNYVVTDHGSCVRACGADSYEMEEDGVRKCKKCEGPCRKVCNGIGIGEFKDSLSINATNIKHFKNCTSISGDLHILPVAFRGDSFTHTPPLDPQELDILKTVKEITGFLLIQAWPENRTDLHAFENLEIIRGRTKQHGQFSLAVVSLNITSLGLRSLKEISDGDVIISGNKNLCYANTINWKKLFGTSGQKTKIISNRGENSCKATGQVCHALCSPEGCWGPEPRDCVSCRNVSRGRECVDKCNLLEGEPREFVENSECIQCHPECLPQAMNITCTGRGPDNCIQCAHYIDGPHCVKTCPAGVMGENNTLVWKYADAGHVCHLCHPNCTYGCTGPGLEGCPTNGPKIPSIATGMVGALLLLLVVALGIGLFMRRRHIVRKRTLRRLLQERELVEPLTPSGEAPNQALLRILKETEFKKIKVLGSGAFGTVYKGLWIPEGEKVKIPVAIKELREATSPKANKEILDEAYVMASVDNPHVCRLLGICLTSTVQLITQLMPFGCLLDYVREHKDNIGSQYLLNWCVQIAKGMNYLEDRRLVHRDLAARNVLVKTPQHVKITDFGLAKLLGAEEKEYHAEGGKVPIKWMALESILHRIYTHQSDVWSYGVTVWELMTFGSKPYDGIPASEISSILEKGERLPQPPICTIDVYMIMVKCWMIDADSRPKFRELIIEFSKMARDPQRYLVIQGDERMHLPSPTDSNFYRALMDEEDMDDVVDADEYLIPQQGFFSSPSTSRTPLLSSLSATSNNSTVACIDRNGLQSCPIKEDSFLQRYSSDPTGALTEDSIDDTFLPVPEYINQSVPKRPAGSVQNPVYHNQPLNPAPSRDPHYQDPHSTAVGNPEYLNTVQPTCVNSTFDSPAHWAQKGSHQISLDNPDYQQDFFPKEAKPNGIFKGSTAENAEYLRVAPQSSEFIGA

EGFR, sequence (P00533 whole entry, looked up): as above

At EGFR, `O=[N+]([O-])c1ccc(Nc2cccc(Cl)c2)c2c(O)ncnc12` returned an inhibition of 17.1%. At EGFR (human), this compound had a pIC50 of less than 5.00 and an inhibition of 32.5%.

Regarding `CSCC[C@@H](Nc1ccc([N+](=O)[O-])c2ncnc(O)c12)C(=O)O`, the inhibition worked out at 5.6% on EGFR and 19.9% at EGFR (human).

In the case of `O=[N+]([O-])c1ccc(N2CC=CC2)c2c(O)ncnc12`, the results for the inhibition against EGFR and at EGFR (human) were 7.9% and 34.6%, respectively.

Turning to `COc1ccc([N+](=O)[O-])c2ncnc(O)c12`, the inhibition stood at 0% on EGFR and 35.8% at EGFR (human).

`O=[N+]([O-])c1ccc(NCc2ccccc2)c2c(O)ncnc12`: the inhibition was determined as 5.2% on EGFR and 12.1% at EGFR (human).

In turn, `COC(=O)C#Cc1ccc([N+](=O)[O-])cc1` returned an inhibition on EGFR of 28%.

On to `O=C(O)[C@H](Nc1ccc([N+](=O)[O-])c2ncnc(O)c12)c1ccccc1`, for which the values for the inhibition on EGFR and on EGFR (human) were 6.5% and 29.2%, respectively.

The compound `COc1ccc(Nc2ccc([N+](=O)[O-])c3ncnc(O)c23)cc1` registered an inhibition at EGFR of 12.2%. At EGFR (human), this compound gave a pIC50 of more than 8.00 and an inhibition of 75.5%.

With `O=[N+]([O-])c1ccc(Nc2ccc(OCc3ccccc3)cc2)c2c(O)ncnc12`, on EGFR, the inhibition worked out at 21.1%. Besides, the pIC50 against EGFR (human) is 5.38.

As for `CCOc1ccc([N+](=O)[O-])c2ncnc(O)c12`, the inhibition on EGFR is 3.9%; against EGFR (human) it was 32.3%.

In turn, `Nc1ccc(Nc2ccc([N+](=O)[O-])c3ncnc(O)c23)cc1` displayed an inhibition at EGFR of 0%. Further, the pIC50 against EGFR (human) is 5.40.

Regarding `Cc1cccc(Nc2ccc([N+](=O)[O-])c3ncnc(O)c23)c1`, the results for the inhibition on EGFR and against EGFR (human) were 0% and 15.2%, respectively.

In the case of `O=[N+]([O-])c1ccc(Nc2ccccc2)c2c(O)ncnc12`, the inhibition against EGFR stood at 17.7%. In addition, at EGFR (human), the negative logarithm of the IC50 (pIC50) was 6.32.

As for `O=[N+]([O-])c1ccc(N2CCCC2)c2c(O)ncnc12`, the inhibition on EGFR is 0%; at EGFR (human), 23.3%.

Turning to `O=[N+]([O-])c1ccc(Nc2ccc(Cl)cc2)c2c(O)ncnc12`, the inhibition at EGFR amounted to 18.3%; at EGFR (human), 28.6%.

The inhibition is the relative decrease from the control value, in per cent. Lower therefore signals a response near the control. For orientation: pIC50 means the IC50 on a negative log10 scale, so that one unit is a factor of ten. The low end stands for a large IC50, the high end for a small IC50.
